The results in this text go back to patent publication US20220268780A1, “METHODS OF PREDICTING ENDOMETRIAL RECEPTIVITY” (HUDSON INSTITUTE OF MEDICAL RESEARCH, priority 2019, published 2022).

This series deals with PCX mRNA in Ishikawa cells. The series can be described thus: Transfection of miRNA mimics into Ishikawa cells, PCX mRNA by real-time RT-PCR. It counts as cell-based, human. The conditions noted are these: mimic 5 μm, 24 h after transfection. The procedure:
To confirm that these two miRNAs can directly down-regulate PCX, mimics of these miRNAs were transfected into a human endometrial epithelial Ishikawa cell line and the impact on the level of PCX expression examined.
Ishikawa cells were cultured overnight in a 12-well plate (3.0×10^5 per well) in complete medium containing MEM (Thermo Fisher Scientific) supplemented with 10% FCS, 1% L-glutamine (Sigma) and 1% antibiotic-antimycotic. The following day, cells were replenished with Opti-MEM for transfection. Control and miRNA mimics (5 μm, all from Thermo Fisher Scientific) were transfected into Ishikawa cells using Lipofectamine RNAiMAX Transfection Reagent (Thermo Fisher Scientific) for 24, 48, 72 h respectively, and PCX mRNA levels were examined by real-time RT-PCR. Combination of the two miRNAs (5 μm each) was also tested.
On the technique in general: In qPCR the cycle at which signal appears reflects the starting amount.

In the case of “miR-145: miRNA mimic (Thermo Fisher Scientific); sequence GUCCAGUUUUCCCAGGAAUCCCU, SEQ ID NO: 33 (chemistry not given here)”, the “repression of PCX mRNA” value is on record as around 34%.
With “miR-199: miRNA mimic (Thermo Fisher Scientific); sequence CCCAGUGUUCAGACUACCUGUUC, SEQ ID NO: 31 (chemistry not given here)”, the “repression of PCX mRNA” value was around 34%.
